Tests used:
Assay type in all cases: in vivo
Eleusine indica = experiment: Indoor herbicide activity determination, Seed Treatment; pre-emergence (soil spray); settings: Dosage 240 g a.i./ha
Outline: (§1)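 Weed seeds were sown in 7 cm pots of sandy nutrient soil (pH 6.1, 1% organic matter), covered, bottom-watered and held 24 h in a constant-temperature illuminated room before the soil surface was sprayed in a traveling spray tower. Fresh-weight inhibition versus untreated plants was scored 21 days later.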

Alopecurus myosuroides = experiment: as above; settings: Dosage 240 g a.i./ha
Outline: as §1

Alopecurus japonicus = experiment: as above; settings: Dosage 240 g a.i./ha
Outline: as §1

Leptochloa chinensis = experiment: as above; settings: Dosage 240 g a.i./ha
Outline: as §1

Lolium multiflorum = experiment: as above; settings: Dosage 240 g a.i./ha
Outline: as §1

Cyperus iria = experiment: Indoor herbicide activity determination, post-emergence (stem and leaf spray at 2-4 leaf stage); settings: 504 h, 60 g a.i./ha, determined 21 days later, read-out: Inhibition rate of fresh weight, Cyperus iria
Outline: (§2)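 Potted weeds in sandy nutrient soil (pH 6.1, 1% organic matter) were grown in a constant-temperature illuminated room to the 2-4 leaf stage, then given a stem-and-leaf spray. Plants went back to the culture room once the spray had dried in shade. At 21 days, fresh weight inhibition % was calculated relative to untreated control plants.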

Eclipta prostrata = experiment: as above; settings: 504 h, 60 g a.i./ha, determined 21 days later, read-out: Inhibition rate of fresh weight, Eclipta prostrata
Outline: as §2

Digitaria sanguinalis = experiment: as above; settings: 504 h, 60 g a.i./ha, determined 21 days later, read-out: Inhibition rate of fresh weight, Digitaria sanguinalis
Outline: as §2

Structure (SMILES) | Herbicidal activities, Eleusine indica (inhibition rate class) (Eleusine indica) | Herbicidal activities, Alopecurus myosuroides (inhibition rate class) (Alopecurus myosuroides) | Herbicidal activities, Alopecurus japonicus (inhibition rate class) (Alopecurus japonicus) | Herbicidal activities, Leptochloa chinensis (inhibition rate class) (Leptochloa chinensis) | Herbicidal activities, Lolium multiflorum (inhibition rate class) (Lolium multiflorum) | inhibition at 60 g/ha (Cyperus iria) | inhibition at 60 g/ha (Eclipta prostrata) | inhibition at 60 g/ha (Digitaria sanguinalis)
COC(=O)[C@H]1C[C@@H](NC(=O)C2(C(F)(F)F)CC(c3cc(Cl)cc(Cl)c3)=NO2)C1 (relative stereo) [I-231] | A (A indicates that the inhibition rate was greater than or equal to 80% to 100%) | A (A indicates that the inhibition rate was greater than or equal to 80% to 100%) | A (A indicates that the inhibition rate was greater than or equal to 80% to 100%) | A (A indicates that the inhibition rate was greater than or equal to 80% to 100%) | A (A indicates that the inhibition rate was greater than or equal to 80% to 100%) | 80 to 100% | 60 to 80% | 80 to 100%
O=C(N[C@H]1C[C@@H](C(=O)O)C1)C1(C(F)(F)F)CC(c2cc(F)cc(C(F)(F)F)c2)=NO1 (relative stereo) [I-241] | A (A indicates that the inhibition rate was greater than or equal to 80% to 100%) | A (A indicates that the inhibition rate was greater than or equal to 80% to 100%) | A (A indicates that the inhibition rate was greater than or equal to 80% to 100%) | A (A indicates that the inhibition rate was greater than or equal to 80% to 100%) | A (A indicates that the inhibition rate was greater than or equal to 80% to 100%) | 80 to 100% | 60 to 80% | 80 to 100%
COC(=O)[C@H]1C[C@@H](NC(=O)C2(C(F)(F)F)CC(c3cc(F)cc(C(F)(F)F)c3)=NO2)C1 (relative stereo) [I-243] | A (A indicates that the inhibition rate was greater than or equal to 80% to 100%) | A (A indicates that the inhibition rate was greater than or equal to 80% to 100%) | A (A indicates that the inhibition rate was greater than or equal to 80% to 100%) | A (A indicates that the inhibition rate was greater than or equal to 80% to 100%) | A (A indicates that the inhibition rate was greater than or equal to 80% to 100%) | 80 to 100% | 60 to 80% | 80 to 100%
O=C(N[C@H]1C[C@@H](C(=O)O)C1)C1(C(F)(F)F)CC(c2cc(Cl)cc(C(F)(F)F)c2)=NO1 (relative stereo) [I-245] | A (A indicates that the inhibition rate was greater than or equal to 80% to 100%) | A (A indicates that the inhibition rate was greater than or equal to 80% to 100%) | A (A indicates that the inhibition rate was greater than or equal to 80% to 100%) | A (A indicates that the inhibition rate was greater than or equal to 80% to 100%) | A (A indicates that the inhibition rate was greater than or equal to 80% to 100%) | 80 to 100% | 60 to 80% | 80 to 100%
O=C(N[C@H]1C[C@@H](C(=O)O)C1)C1(C(F)(F)F)CC(c2cc(F)cc(OC(F)(F)F)c2)=NO1 (relative stereo) [I-249] | A (A indicates that the inhibition rate was greater than or equal to 80% to 100%) | A (A indicates that the inhibition rate was greater than or equal to 80% to 100%) | A (A indicates that the inhibition rate was greater than or equal to 80% to 100%) | A (A indicates that the inhibition rate was greater than or equal to 80% to 100%) | A (A indicates that the inhibition rate was greater than or equal to 80% to 100%) | 80 to 100% | 60 to 80% | 80 to 100%
COC(=O)[C@H]1C[C@@H](NC(=O)C2(C(F)(F)F)CC(c3cc(F)cc(OC(F)(F)F)c3)=NO2)C1 (relative stereo) [I-251] | A (A indicates that the inhibition rate was greater than or equal to 80% to 100%) | A (A indicates that the inhibition rate was greater than or equal to 80% to 100%) | A (A indicates that the inhibition rate was greater than or equal to 80% to 100%) | A (A indicates that the inhibition rate was greater than or equal to 80% to 100%) | A (A indicates that the inhibition rate was greater than or equal to 80% to 100%) | 80 to 100% | 60 to 80% | 80 to 100%
O=C(N[C@H]1C[C@@H](C(=O)O)C1)C1(C(F)(F)F)CC(c2cccc(F)c2)=NO1 (relative stereo) [I-268] | A (A indicates that the inhibition rate was greater than or equal to 80% to 100%) | A (A indicates that the inhibition rate was greater than or equal to 80% to 100%) | A (A indicates that the inhibition rate was greater than or equal to 80% to 100%) | A (A indicates that the inhibition rate was greater than or equal to 80% to 100%) | A (A indicates that the inhibition rate was greater than or equal to 80% to 100%) | 80 to 100% | 40 to 60% | 80 to 100%
COC(=O)[C@H]1C[C@@H](NC(=O)C2(C(F)(F)F)CC(c3cccc(F)c3)=NO2)C1 (relative stereo) [I-270] | A (A indicates that the inhibition rate was greater than or equal to 80% to 100%) | A (A indicates that the inhibition rate was greater than or equal to 80% to 100%) | A (A indicates that the inhibition rate was greater than or equal to 80% to 100%) | A (A indicates that the inhibition rate was greater than or equal to 80% to 100%) | A (A indicates that the inhibition rate was greater than or equal to 80% to 100%) | 80 to 100% | 40 to 60% | 80 to 100%
COC(=O)[C@H]1C[C@@H](NC(=O)C2(C(C)(F)F)CC(c3cc(F)cc(F)c3)=NO2)C1 (relative stereo) [I-347] | A (A indicates that the inhibition rate was greater than or equal to 80% to 100%) | A (A indicates that the inhibition rate was greater than or equal to 80% to 100%) | A (A indicates that the inhibition rate was greater than or equal to 80% to 100%) | A (A indicates that the inhibition rate was greater than or equal to 80% to 100%) | A (A indicates that the inhibition rate was greater than or equal to 80% to 100%) | 80 to 100% | 40 to 60% | 60 to 80%
C=C(F)C1(C(=O)N[C@H]2C[C@@H](C(=O)OC)C2)CC(c2cc(F)cc(F)c2)=NO1 (relative stereo) [I-356] | A (A indicates that the inhibition rate was greater than or equal to 80% to 100%) | A (A indicates that the inhibition rate was greater than or equal to 80% to 100%) | A (A indicates that the inhibition rate was greater than or equal to 80% to 100%) | A (A indicates that the inhibition rate was greater than or equal to 80% to 100%) | A (A indicates that the inhibition rate was greater than or equal to 80% to 100%) | 80 to 100% | 40 to 60% | 60 to 80%

Reference: EP4722201A1, “3-PHENYLISOXAZOLINE-5-CARBOXAMIDE COMPOUND, AND PREPARATION METHOD THEREFOR, HERBICIDAL COMPOSITION THEREOF AND USE THEREOF” (Jiangsu Flag Chemical Industry Co., Ltd, priority 2023, dated 2024)
